Tests used:
[1] = tested on: larva of Cnaphalocrocis medinalis Guenee; experiment: Test against larva of Cnaphalocrocis medinalis Guenee (sprayed paddy rice foliage); format: in vivo; settings: 20 ppm concentration of the active component; second instar larvae; counted after 7 days; 25° C.
Experimental: Paddy rice (variety: Tamanishiki) planted in a pot was treated by spraying 50 ml per pot of the diluted aqueous solution of the prescribed concentration of the active compound prepared in the same manner as in the above-mentioned Biological Test Example 1. After the treated rice plant was dried in the air, their foliage part was cut in 4-5 cm length, which were put in a dish with 9 cm diameter with a sheet of filter paper and 2 ml of water. Five larvae of Cnaphalocrocis medinalis Guenee at the second instar were put in the dish that was placed in a room at the constant temperature of 25° C. After 2 and 4 days, each rest (each ⅓ amount) of foliage parts of rice plant were cut in the same manner and added to the dish. After 7 days the number of dead larvae was counted and the rate of death was calculated. In this test the results of 2 dishes at 1 section were averaged.

[2] = tested on: larva of Spodoptera litura; experiment: Test against larva of Spodoptera litura (leaf dip, sweet potato leaves); format: in vivo; settings: 20 ppm concentration of the active component; third instar larvae; counted after 7 days; 25° C.
Experimental: Preparation of Test Solution:
In order to make an appropriate formulation of an active compound, 1 part by weight of the active compound was mixed with the above-mentioned amount of solvent containing the above-mentioned amount of emulsifier and the mixture was diluted with water to a prescribed concentration.
Leaves of sweet potato were soaked in the test solution diluted to a prescribed concentration with water, dried in the air and put in a dish of 9 cm diameter.
10 larvae of Spodoptera litura at the third instar were placed on the leaves and kept in a room at the constant temperature of 25° C. After 2 and 4 days further leaves of sweet potato were added and after 7 days the number of dead larvae was counted and the rate of death was calculated.
In this test the results of 2 dishes at 1 section were averaged.

Structure (SMILES) | controlling effect, rate of death [1] [%] | controlling effect, rate of death [2] [%]
Cc1cc(Cn2cc(C(F)(F)C(F)(F)F)c(C(F)(F)F)n2)ccc1NC(=O)c1cccc(Cl)c1C(=O)N[C@@H](C)CS(C)(=O)=O [compound 639] | 100 | 100
CSC[C@H](C)NC(=O)c1c(OS(C)(=O)=O)cccc1C(=O)Nc1ccc(-n2nc(C(F)(F)F)cc2C(F)(F)F)cc1C [compound 492] | 100 | 100
Cc1cc(-n2nc(C(F)(F)F)cc2C(F)(F)F)ccc1NC(=O)c1cccc(I)c1C(=O)NC(C)CS(C)(=O)=O (stereo not shown) [compound 417] | 100 | 100
Cc1cc(C(C)n2nc(C(F)(F)F)cc2C(F)(F)F)ccc1NC(=O)c1cccc(I)c1C(=O)NC(C)(C)C[S+](C)[O-] (stereo not shown) [compound 566] | 100 | 100
Cc1cc(Cn2nc(C(F)(F)F)cc2C(F)(F)F)ccc1NC(=O)c1cccc(Cl)c1C(=O)NC(C)(C)CS(C)(=O)=O [compound 10] | 100 | 100
Cc1cc(-n2cc(C(F)(F)C(F)(F)F)cn2)ccc1NC(=O)c1cccc(I)c1C(=O)NC(C)(C)CS(C)(=O)=O [compound 448] | 100 | 100
CSC[C@H](C)NC(=O)c1c(I)cccc1C(=O)Nc1ccc(C(C)n2nc(C(F)(F)F)nc2C(F)(F)F)cc1C (stereo partly shown) [compound 571] | 100 | 100
CSC[C@H](C)NC(=O)c1c(I)cccc1C(=O)Nc1ccc(Cn2cc(C(F)(F)C(F)(F)F)c(C(F)(F)C(F)(F)C(F)(F)F)n2)cc1C [compound 666] | 100 | 100
CSCC(C)NC(=O)c1c(I)cccc1C(=O)Nc1ccc(-c2cc(C(F)(F)F)nn2CC(F)(F)F)cc1C (stereo not shown) [compound 506] | 100 | 100
Cc1cc(-n2nc(C(F)(F)C(F)(F)F)cc2C(F)(F)F)ccc1NC(=O)c1cccc(I)c1C(=O)NC(C)CS(C)(=O)=O (stereo not shown) [compound 475] | 100 | 100
Cc1cc(Cn2nc(C(F)(F)C(F)(F)F)nc2C(F)(F)F)ccc1NC(=O)c1cccc(I)c1C(=O)NC(C)C[S+](C)[O-] (stereo not shown) [compound 229] | 100 | 100
CSCC(C)NC(=O)c1c(I)cccc1C(=O)Nc1ccc(Cc2c(C(F)(F)F)nn(C(F)F)c2OC(F)F)cc1C (stereo not shown) [compound 262] | 100 | 100
Cc1cc(Cn2cc(C(F)(F)C(F)(F)C(F)(F)F)c(C(F)(F)C(F)(F)F)n2)ccc1NC(=O)c1cccc(I)c1C(=O)N[C@@H](C)C[S+](C)[O-] (stereo partly shown) [compound 661] | 100 | 100
Cc1cc(C(C)n2nc(C(F)(F)C(F)(F)F)nc2C(F)(F)F)ccc1NC(=O)c1cccc(Cl)c1C(=O)N[C@@H](C)CS(C)(=O)=O (stereo partly shown) [compound 580] | 100 | 100
Cc1cc(Cn2nc(C(F)(F)F)cc2C(F)(F)F)ccc1NC(=O)c1cccc(I)c1C(=O)NC(C)(C)C[S+](C)[O-] (stereo not shown) [compound 83, N^1-{4-[3,5-bis(trifluoromethyl)-1H-pyrazol-1-ylmethyl]-2-methylphenyl}-N^2-(2-methanesulfinyl-1,1-dimethylethyl)-3-iodophthalamide] | 100 | 100
Cc1cc(Cn2cc(C(F)(F)C(F)(F)C(F)(F)C(F)(F)F)c(C(F)(F)F)n2)ccc1NC(=O)c1cccc(I)c1C(=O)N[C@@H](C)C[S+](C)[O-] (stereo partly shown) [compound 649] | 100 | 100
Cc1cc(Cn2nc(C(F)(F)F)nc2C(F)(F)F)ccc1NC(=O)c1cccc(Cl)c1C(=O)NC(C)CS(C)(=O)=O (stereo not shown) [compound 145] | 100 | 100
Cc1cc(Cn2nc(C(F)(F)F)cc2OC(F)F)ccc1NC(=O)c1cccc(I)c1C(=O)NC(C)CS(C)(=O)=O (racemic) [compound 107] | 100 | 100

Structure (SMILES) | controlling effect, rate of death [1] [%] | controlling effect, rate of death [2] [%]
CSCC(C)NC(=O)c1c(Br)cccc1C(=O)Nc1ccc(Cn2nc(C(F)(F)F)nc2C(F)(F)F)cc1C (stereo not shown) [compound 177] | 100 | 100
CSCC(C)NC(=O)c1c(Cl)cccc1C(=O)Nc1ccc(Cn2nc(C(F)(F)C(F)(F)F)nc2C(F)(F)F)cc1C (stereo not shown) [compound 153] | 100 | 100
CSC[C@H](C)NC(=O)c1c(Cl)cccc1C(=O)Nc1ccc(C(C)n2nc(C(F)(F)F)nc2C(F)(F)F)cc1C (stereo partly shown) [compound 568] | 100 | 100
CSCC(C)NC(=O)c1c(OS(C)(=O)=O)cccc1C(=O)Nc1ccc(Cn2nc(C(F)(F)F)cc2C(F)(F)F)cc1C (stereo not shown) [compound 128] | 100 | 100
CSC[C@H](C)NC(=O)c1c(I)cccc1C(=O)Nc1ccc(Cn2cc(C(F)(F)C(F)(F)C(F)(F)F)c(C(F)(F)F)n2)cc1C [compound 644] | 100 | 100
CSCC(C)NC(=O)c1c(Cl)cccc1C(=O)Nc1ccc(-n2nc(C(F)(F)F)cc2C(F)(F)F)cc1C (stereo not shown) [compound 318] | 100 | 100
CSCC(C)(C)NC(=O)c1c(I)cccc1C(=O)Nc1ccc(C(C)n2nc(C(F)(F)F)cc2C(F)(F)F)cc1C (stereo not shown) [compound 565] | 100 | 100
CSCC(C)NC(=O)c1c(I)cccc1C(=O)Nc1ccc(Cn2nc(C(F)(F)F)cc2C(F)(F)F)cc1C (racemic) [compound 85] | 100 | 100
CSC[C@H](C)NC(=O)c1c(Cl)cccc1C(=O)Nc1ccc(Cn2cc(C(F)(F)C(F)(F)C(F)(F)C(F)(F)F)c(C(F)(F)F)n2)cc1C [compound 645] | 100 | 100
Cc1cc(Cn2nc(C(F)(F)F)nc2C(F)(F)F)ccc1NC(=O)c1cccc([N+](=O)[O-])c1C(=O)N[C@@H](C)CS(C)(=O)=O [compound 548] | 100 | 100
CSC[C@H](C)NC(=O)c1c(Cl)cccc1C(=O)Nc1ccc(Cn2cc(C(F)(F)C(F)(F)C(F)(F)F)c(C(F)(F)C(F)(F)F)n2)cc1C [compound 657] | 100 | 100
CSC[C@H](C)NC(=O)c1c(Cl)cccc1C(=O)Nc1ccc(Cn2cc(C(F)(F)C(F)(F)C(F)(F)F)c(C(F)(F)C(F)(F)C(F)(F)F)n2)cc1C [compound 667] | 100 | 100
CSCC(C)NC(=O)c1c(I)cccc1C(=O)Nc1ccc(-n2nc(C(F)(F)F)cc2C(F)(F)F)cc1C (stereo not shown) [compound 414] | 100 | 100
CSCC(C)(C)NC(=O)c1c(Cl)cccc1C(=O)Nc1ccc(Cn2nc(C(F)(F)F)cc2C(F)(F)F)cc1C [compound 8] | 100 | 100
CCSCC(C)NC(=O)c1c(I)cccc1C(=O)Nc1ccc(Cn2nc(C(F)(F)F)cc2C(F)(F)F)cc1C (stereo not shown) [compound 91] | 100 | 100
Cc1cc(Cn2nc(C(F)(F)F)cc2C(F)(F)F)ccc1NC(=O)c1cccc(I)c1C(=O)NC(C)C[S+](C)[O-] (mixture of isomers) [compound 88] | 100 | 100
Cc1cc(Cn2nc(C(F)(F)F)nc2C(F)(F)F)ccc1NC(=O)c1cccc([N+](=O)[O-])c1C(=O)N[C@@H](C)C[S+](C)[O-] (stereo partly shown) [compound 547] | 100 | 100
